From patent US4886806A, “Flavone-3-carboxylic acids compounds and pharmaceutical compositions containing them” (Kali-Chemie Pharma GmbH, priority 1987, dated 1989)

What was measured:
male mice = test: Determination of the minimum toxic dose; format: in vivo; settings: max. dose 300 mg/kg, 24 h
Experimental: 3. Determination of the minimum toxic dose.
Male mice of 20 to 25 g weight were given maximal doses of 300 mg/kg of test substance per os. The animals were carefully watched over a period of three hours for toxicity symptoms. Over a period of twenty-four hours after administration, all symptoms and deaths were recorded. Associated symptoms were also watched and recorded. If death or strongly toxic symptoms were noted, further mice were given increasingly lower doses. The lowest dose which brought about death or strongly toxic symptoms was reported as the minimum toxic dose.

[1] = tested on: oxygen radical-forming activity of peritoneal exudate cells (PEC) of mice; test: Spontaneous CL and induced CL chemiluminescence test: inhibition of oxygen radical liberation from peritoneal exudate cells (30 min preincubation); format: cell-based; parameters: concentration or dose not given beside the values; settings: for Inhibition in vitro of the oxygen radical liberation, Chemiluminescence Test % inhibition, Ind. CL: induced CL, after ZyC3b activation; for Inhibition in vitro of the oxygen radical liberation, Chemiluminescence Test % inhibition, Spnt. CL: spontaneous CL, before ZyC3b
Experimental: 1. To determine the inhibiting effect on the oxygen radical-forming activity of inflamed cells, the in vitro inhibition of the release of oxygen radicals from activated peritoneal exudate cells (=PEC) of mice was determined in the chemiluminescence (CL) test according to the method of Mueller-Peddinghaus (Int. J. Immunopharmac. 6, 455-466 (1984)). […] The intensity of the chemiluminescence is a measurement of the oxygen radical content in the suspension and thus the degree of activity of the inflamed cells. In this, three functionally different parameters are detected, the spontaneous CL, the induced CL and the peak CL. The spontaneous CL and the induced CL on the one hand and the peak CL on the other hand differ from each other because in the first two parameters the test substances are in contact with the cells for a 30 minute preincubation period before the inflammation irritant is added, whereas with the peak CL the cells are first stimulated, and the test substance is added at the peak of their activity. The measurement of the spontaneous CL thus detects the influence of the test substance on the relative rest activity of inflamed cells, the induced CL represents the effect of the test substances on the activatability of the cells and the inhibition of the peak CL indicates the effect of the test substances on the maximum activity of the inflamed cells. 1.1 Production of PEC suspension used in the test. In order to induce the PEC formation, female mice of 20-25 g body weight were each injected i.p. with 2 ml of a 3% solution of thioglycollate in sterile isotonic sodium chloride solution. Twenty four hours after the thioglycollate injection the cells, which predominantly consisted of polymorphonuclear leucocytes, were recovered by washing out of the abdominal cavity and washed twice. As cell culture medium there was added a commercially available solution under the designation RPMI 1640 (pH 7.2) (produced by Flow Laboratories, […], Germany), which contains 10% fetal calf serum (FCS, produced by Seromed GmbH, Munich, Germany) 18 μmol/l sodium bicarbonate and 2 μmol/l L-glutamine. The cell pellets of four animals each time were resuspended in cell culture medium, collected together and the suspension was made up to 2×10^6 cells per ml with cell culture medium. The cell suspensions were kept under ice cooling until their use the same day. 1.2 Production of the complement opsonized zymosan (=ZyC3 b) suspension used for activation. 200 mg zymosan (glycoprotein mixture isolated from the cell walls of brewer's yeast, Sacchomyces […], produced by Sigma Chemical Co., Munich, Germany) were suspended in 10 ml phosphate buffer solution according to Dulbecco (produced by Flow Laboratories, […], Germany), well stirred and heated for thirty minutes in a water bath to 100° C. After cooling, it was centrifuged for five minutes at 4° C. and at 600 ×g and the supernatant was discarded. The sediment was resuspended in 50 ml human serum and incubated for thirty minutes at 37° C. in a shaking water bath. Then it was centrifuged for five minutes at 600 ×g and 420 C., the supernatant decanted and the sediment washed with phosphate buffer solution. The working suspension of 8×10^-3 g ZyC3 b/ml was produced from the sediment by dilution with phosphate buffer solution (Mueller-Peddinghaus et al., Zbl. Vet. Med. B. 30, 559-575). 1.3 Chemiluminescence (CL) measurement (Peak-CL). […] At the end of this preincubation phase, 100 μl lucigenin were added, and in the course of the subsequent sixteen minute incubation phase the spontaneous CL parameter was determined with two measuring points. Then 100 μl ZyC3 b+100 μl phosphate buffer were added, and during the course of the subsequent twenty-four minute cell activation the induced CL parameter was measured with three measuring points. All measurements were determined twice. The parameters spontaneous CL and induced CL were determined on the same day with two separate cell pools.

[2] = tested on: oxygen radical-forming activity of activated peritoneal exudate cells (PEC) of mice; test: Peak chemiluminescence (CL) test: inhibition of oxygen radical liberation from activated peritoneal exudate cells; format: cell-based; settings: Mus musculus, 10^-4 Mol substance/l, added at peak of cell activity, read-out: Inhibition in vitro of the oxygen radical liberation, Chemiluminescence Test % inhibition, Pk. CL
Experimental: 1. To determine the inhibiting effect on the oxygen radical-forming activity of inflamed cells, the in vitro inhibition of the release of oxygen radicals from activated peritoneal exudate cells (=PEC) of mice was determined in the chemiluminescence (CL) test according to the method of Mueller-Peddinghaus (Int. J. Immunopharmac. 6, 455-466 (1984)). […] The intensity of the chemiluminescence is a measurement of the oxygen radical content in the suspension and thus the degree of activity of the inflamed cells. In this, three functionally different parameters are detected, the spontaneous CL, the induced CL and the peak CL. The spontaneous CL and the induced CL on the one hand and the peak CL on the other hand differ from each other because in the first two parameters the test substances are in contact with the cells for a 30 minute preincubation period before the inflammation irritant is added, whereas with the peak CL the cells are first stimulated, and the test substance is added at the peak of their activity. The measurement of the spontaneous CL thus detects the influence of the test substance on the relative rest activity of inflamed cells, the induced CL represents the effect of the test substances on the activatability of the cells and the inhibition of the peak CL indicates the effect of the test substances on the maximum activity of the inflamed cells. 1.1 Production of PEC suspension used in the test. In order to induce the PEC formation, female mice of 20-25 g body weight were each injected i.p. with 2 ml of a 3% solution of thioglycollate in sterile isotonic sodium chloride solution. Twenty four hours after the thioglycollate injection the cells, which predominantly consisted of polymorphonuclear leucocytes, were recovered by washing out of the abdominal cavity and washed twice. As cell culture medium there was added a commercially available solution under the designation RPMI 1640 (pH 7.2) (produced by Flow Laboratories, […], Germany), which contains 10% fetal calf serum (FCS, produced by Seromed GmbH, Munich, Germany) 18 μmol/l sodium bicarbonate and 2 μmol/l L-glutamine. The cell pellets of four animals each time were resuspended in cell culture medium, collected together and the suspension was made up to 2×10^6 cells per ml with cell culture medium. The cell suspensions were kept under ice cooling until their use the same day. 1.2 Production of the complement opsonized zymosan (=ZyC3 b) suspension used for activation. 200 mg zymosan (glycoprotein mixture isolated from the cell walls of brewer's yeast, Sacchomyces […], produced by Sigma Chemical Co., Munich, Germany) were suspended in 10 ml phosphate buffer solution according to Dulbecco (produced by Flow Laboratories, […], Germany), well stirred and heated for thirty minutes in a water bath to 100° C. After cooling, it was centrifuged for five minutes at 4° C. and at 600 ×g and the supernatant was discarded. The sediment was resuspended in 50 ml human serum and incubated for thirty minutes at 37° C. in a shaking water bath. Then it was centrifuged for five minutes at 600 ×g and 420 C., the supernatant decanted and the sediment washed with phosphate buffer solution. The working suspension of 8×10^-3 g ZyC3 b/ml was produced from the sediment by dilution with phosphate buffer solution (Mueller-Peddinghaus et al., Zbl. Vet. Med. B. 30, 559-575). 1.3 Chemiluminescence (CL) measurement (Peak-CL). The PEC suspension was divided into samples of 100 μl each, placed in test tubes, and these were incubated for ten minutes at a temperature of 3720 C. in a measurement device (Chemiluminescence analyzer, Laboratorium Prof. Berthold, Wildbad, Germany). Then in order to amplify the chemiluminescence, 100 μl lucigenin solution was added (final concentration 1.54×10^-4 mol/l) and incubated for 16 more minutes. The cells were then activated by the addition of 100 μl of the ZyC3 b suspension produced as described in section 1.2 plus 100 μl phosphate buffer solution. […]

[3] = tested on: carrageenin foot edema in male Wistar rats; test: Inhibition of carrageenin foot edema in rats (Winter et al.); format: in vivo; settings: Rattus norvegicus, 2 h after irritant
Experimental: A similar volume of isotonic sodium chloride solution was injected in the left hind foot. The volume of the each rat's foot was measured plethysmometrically both before and two hours after administration of the irritant, and the swelling of the foot volume after the carrageenin application was compared to the foot which was treated only with sodium chloride solution The inhibition of edema formation by the test substances in the treated animals was compared in percentage terms with the animals of the untreated control group.

| Compound | Minimal toxic dose mg/kg mouse p.o. (male mice) | Inhibition in vitro of the oxygen radical liberation, Chemiluminescence Test % inhibition, Ind. CL [1] | Inhibition in vitro of the oxygen radical liberation, Chemiluminescence Test % inhibition, Spnt. CL [1] | inhibition at 100 µM (stock) [2] | inhibition in vivo at 215 µmol/kg ([3]; ip, 215 μmol/kg i.p.) | inhibition in vivo at 215 µmol/kg ([3]; po, 215 μmol/kg p.o.) | inhibition in vivo at 100 µmol/kg ([3]; po, 100 μmol/kg p.o.) |
| --- | --- | --- | --- | --- | --- | --- | --- |
| O=C(NCCCCN1CCN(Cc2ccccc2)CC1)c1c(-c2ccccc2)oc2ccccc2c1=O [Example 23] | 300 mg/kg | 88% | 95% | 63% |  |  |  |
| O=C(c1c(-c2cc(O)c(O)c(O)c2)oc2ccccc2c1=O)N1CCN(c2ccccn2)CC1 [Example 10b, 3',4',5'-Trihydroxy-3-{[4-(2-pyridyl)-piperazin-1-yl]-carbonyl}flavone] |  |  |  |  | 35% | 30% |  |
| CCC(=O)Oc1cc(-c2oc3ccccc3c(=O)c2C(=O)N2CCN(c3ccccn3)CC2)cc(OC(=O)CC)c1OC(=O)CC [Example 56] |  | 70% | 52% | 37% |  |  |  |
| COc1cc(-c2oc3ccccc3c(=O)c2C(=O)NCCCCN2CCN(c3ccccn3)CC2)cc(OC)c1OC [Example 6b, 3',4',5'-Trimethoxy-3-{4-[4-(2-pyridyl)-piperazin-1-yl]-butylaminocarbonyl}flavone] |  |  |  |  | 75% |  |  |
| CN1CCN(C(=O)c2c(-c3ccccc3)oc3ccccc3c2=O)CC1 [Example 16a] |  |  |  |  |  |  | 20% |
| CCCCCCCCCCCCCCCCOc1ccc(-c2oc3ccccc3c(=O)c2C(=O)N2CCN(Cc3ccccc3)CC2)cc1 [Example 36] |  |  |  |  |  | 30% |  |
| CCN(CC)CCNC(=O)c1c(-c2ccccc2)oc2ccccc2c1=O [Example 22b] | 300 mg/kg | 43% | 67% | 25% |  |  |  |
| COc1cc(-c2oc3ccccc3c(=O)c2C(=O)NCCCN2CCOCC2)cc(OC)c1OC [Example 46] | > 300 mg/kg | 25% | 52% | 11% |  |  |  |
| O=C(NC1CCN(Cc2ccccc2)CC1)c1c(-c2ccccc2)oc2ccccc2c1=O [Example 18b] | 300 mg/kg | 50% | 30% | 41% |  |  |  |
| COc1cc(-c2oc3ccccc3c(=O)c2C(=O)OCCN2CCCC2)cc(OC)c1OC [Example 49] | 300 mg/kg | 64% | 86% | 41% |  |  |  |
| COc1ccc(-c2oc3ccccc3c(=O)c2C(=O)N2CCN(C)CC2)cc1 [Example 28] | > 300 mg/kg | 29% | 54% | 5% |  |  |  |
| O=C(c1c(-c2ccccc2)oc2ccccc2c1=O)N1CC[N+]([O-])(Cc2ccccc2)CC1 [Example 5, 3-[(4-benzylpiperazin-1-yl)-carbonyl]-flavone N-oxide] | > 300 mg/kg | 25% | 49% | 12% |  |  |  |
| O=C(NCCN1CCCC1)c1c(-c2ccccc2)oc2ccccc2c1=O [Example 20b] | 100 mg/kg | 43% | 72% | 27% |  |  |  |
| COc1cc(-c2oc3ccccc3c(=O)c2C(=O)OCCN2CCN(c3ccccn3)CC2)cc(OC)c1OC [Example 47] | 100 mg/kg | 76% | 78% | 70% |  |  |  |
